We go through three molecules from PMC10218109, “Old Drug, New Delivery Strategy: MMAE Repackaged” (International Journal of Molecular Sciences, 2023).

Usually IC50 stands for the midpoint of a concentration-inhibition curve. Higher therefore signals a need for much substance.

For assay [1], the target named is T1, prostate specific membrane antigen (PSMA) (Homo sapiens, UniProt Q04609).
T1 construct: gene FOLH1
As to the kind of experiment: competitive radioligand binding on PSMA-positive LNCaP cells vs […]Ga-PSMA-10. Type of assay: cell-based.

For assay [2], the target named is T1, prostate specific membrane antigen (PSMA). As to the kind of experiment: competitive radioligand binding on PSMA-positive LNCaP cells (reference ligand). Format: cell-based.

T1 sequence (Q04609 whole entry): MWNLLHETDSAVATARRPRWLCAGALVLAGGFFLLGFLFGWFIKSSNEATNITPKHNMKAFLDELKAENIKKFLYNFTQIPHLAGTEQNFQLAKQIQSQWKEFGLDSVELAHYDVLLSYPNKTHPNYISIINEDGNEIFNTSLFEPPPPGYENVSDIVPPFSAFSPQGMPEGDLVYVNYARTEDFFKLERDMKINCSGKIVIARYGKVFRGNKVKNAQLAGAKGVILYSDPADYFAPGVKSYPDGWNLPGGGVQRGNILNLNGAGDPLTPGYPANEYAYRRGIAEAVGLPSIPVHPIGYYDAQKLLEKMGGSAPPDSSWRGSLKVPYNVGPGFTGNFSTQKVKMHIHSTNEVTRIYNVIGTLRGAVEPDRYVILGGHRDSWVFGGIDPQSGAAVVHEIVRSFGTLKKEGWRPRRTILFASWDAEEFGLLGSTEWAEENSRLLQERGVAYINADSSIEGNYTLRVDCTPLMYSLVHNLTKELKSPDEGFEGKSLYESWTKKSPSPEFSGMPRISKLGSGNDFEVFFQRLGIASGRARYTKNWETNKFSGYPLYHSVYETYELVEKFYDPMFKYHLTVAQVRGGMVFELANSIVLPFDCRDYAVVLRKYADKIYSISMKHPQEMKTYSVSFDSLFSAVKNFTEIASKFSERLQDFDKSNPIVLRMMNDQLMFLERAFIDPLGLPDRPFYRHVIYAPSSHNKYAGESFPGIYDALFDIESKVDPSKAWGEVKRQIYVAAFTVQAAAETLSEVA

In assay [1], `NC[C@H]1CC[C@H](C(=O)N[C@@H](Cc2ccc3ccccc3c2)C(=O)NCCCC[C@H](NC(=O)N[C@@H](CCC(=O)O)C(=O)O)C(=O)O)CC1` [KuE-617] yielded an IC50 of 21.5 ± 1.9 nM. Regarding `O=C(O)CCc1ccc(O)c(CN(CCN(CC(=O)O)Cc2cc(CCC(=O)NCCCCCC(=O)NCCCC[C@H](NC(=O)N[C@@H](CCC(=O)O)C(=O)O)C(=O)O)ccc2O)CC(=O)O)c1` [PSMA-11], in assay [2], the half-maximal inhibitory concentration (IC50) is 17.4 ± 1.6 nM. Still for that read-out and setting: to `O=C(O)CC[C@H](NC(=O)N[C@@H](CCCCNC(=O)[C@H](Cc1ccc2ccccc2c1)NC(=O)[C@H]1CC[C@H](CNC(=O)CN2CCN(CC(=O)O)CCN(CC(=O)O)CCN(CC(=O)O)CC2)CC1)C(=O)O)C(=O)O` [PSMA-617] belongs 15.1 ± 3.8 nM.
